Tests used:
Type in all cases: cell-based
[1] = system: cultured monkey corneal endothelial cells; test: UV-induced cell death of cultured monkey corneal endothelial cells (phase difference microscope); details: UV 100 J/m^2; 9 hours after irradiation; 10 μM SB203580, 3 μM BIRB796, 1 μM PH-797804, 3 μM VX-702, 3 μM LY2228820, 3 μM TAK-715
Protocol: (§1) 1×10^5 cultured monkey corneal endothelial cells were seeded on a 12-well plate coated with an FNC Coating Mix and cultured for about 5 days until reaching confluence under the condition of 5% CO2 at 37° C.
Medium: Dulbecco's Modified Eagle Medium (DMEM, Gibco, 12320-032), 10% FBS, 1% Penicillin-Streptomycin (nacalai tesque, 26252-94)
(§2) Each inhibitor was then added at the concentration in the above-described Table and the cells were incubated for 16 hours under the condition of 5% CO2 at 37° C. The solvent of each reagent, Dimethyl Sulfoxide, Sterile-filtered (nacalai tesque, 13408-64) MSO, was added to the Control group and the UV group. Gibco DMEM, 1% P/S (penicillin/streptomycin) was used as the medium.
(§3) The cellular supernatant was then removed and the cells were irradiated with UV (100 J/m^2). After irradiation, cells were again added to a medium containing each inhibitor and cultured for 9 hours. The cell form and apoptosis were observed under a phase difference microscope.

corneal endothelium = test: UV-induced apoptosis of corneal endothelium in rabbit sclerocornea segments, Annexin V and DAPI staining; details: rabbit corneal tissue; UV 100 J/m^2; stored 24 hours at 4° C.; 10 μM SB203580, 3 μM BIRB796, 1 μM PH-797804, 3 μM VX-702, 3 μM LY2228820, 3 μM TAK-715
Protocol: The experiment used a rabbit eye ball 0-24 hours after euthanasia. Sclerocornea was removed along the corneal limbus under a stereo microscope by using spring scissors. The crystalline lens and iris were removed to make a sclerocornea segment. […] After dividing a cornea, pretreatment was applied to the Control group for 2 hours in the dark with Optisol-GS® (Bausch & Lomb) (Lot. […] After washing the cornea twice with PBS(−), 100 J/m^2 of UV was irradiated onto the corneal endothelial cells, which were against stored for 24 hours at 4° C. […] The sclerocornea segments were washed with PBS(−), and MEBCYTO-Apoptosis kit (Annexin V-FITC kit) (MBL) (Lot. 027FA) was used for Annexin V and DAPI staining. The segments were immersed and immobilized for 30 minutes in −30° C. ice-cooled 95% ethanol. In order to remove ethanol components, PBS(−) was exchanged every 5 minutes and the segments were washed three times. An antifading agent was then added and enclosed. Annexin V and nuclei was observed by fluorescence imaging under a confocal microscope. The percentage of Annexin V positive cells were calculated in the above-described rabbit corneal tissue. *p<0.05 (Dunnett's test).

[2] = system: cultured monkey corneal endothelial cells; test: UV-induced apoptosis of cultured monkey corneal endothelial cells, Annexin V and DAPI staining; details: UV 100 J/m^2, after 9 hours of culture
Protocol: as §1, §2, §3
The cells, after 9 hours of culture, were stained for 20 minutes at 37° C. by using MEBCYTO-Apoptosis Kit (Annexin V-FITC Kit) (manufacturer: MBL, Code: 4700). The cells were then immobilized for 10 minutes with 95% acetic acid ethanol. After immobilization, the cells were stained for 30 minutes with DAPI Solution (manufacturer: DOJINDO, Code: GA098) and observed under a confocal microscope.

Cc1ccc(-n2nc(C(C)(C)C)cc2NC(=O)Nc2ccc(OCCN3CCOCC3)c3ccccc23)cc1 [BIRB796, N-[3-tert-butyl-1-(4-methylphenyl)pyrazole-5-yl]-N′-[4-(2-morpholinoethoxy)-1-naphthyl]urea]
suppressed: Cellular disorders (cell death) induced by UV [1] | Apoptosis induced by UV (annexin V staining) (corneal endothelium) | Apoptosis induced by UV (annexin V staining) [2]

CC(C)(C)Cn1c(N)nc2ccc(-c3nc(C(C)(C)C)[nH]c3-c3ccc(F)cc3)nc21 [LY2228820, 5-(2-(tert-butyl)-5-(4-fluorophenyl)-1H-imidazole-4-yl)-3-neopentyl-3H-imidazo[4,5-b]pyridine-2-amine]
suppressed: Cellular disorders (cell death) induced by UV [1] | Apoptosis induced by UV (annexin V staining) (corneal endothelium) | Apoptosis induced by UV (annexin V staining) [2]

CNC(=O)c1ccc(C)c(-n2c(C)cc(OCc3ccc(F)cc3F)c(Br)c2=O)c1 [PH-797804, 3-(3-bromo-4-((2,4-difluorobenzyl)oxy)-6-methyl-2-oxopyridine-1(2H)-yl)-N,4-dimethylbenzamide]
suppressed: Cellular disorders (cell death) induced by UV [1] | Apoptosis induced by UV (annexin V staining) (corneal endothelium) | Apoptosis induced by UV (annexin V staining) [2]

C[S+]([O-])c1ccc(-c2nc(-c3ccncc3)c(-c3ccc(F)cc3)[nH]2)cc1 (stereo not drawn) [SB203580, 4-(4-fluorophenyl)-2-(4-methylsulfinylphenyl)-5-(4-pyridyl)-1H-imidazole]
suppressed: Cellular disorders (cell death) induced by UV [1] | Apoptosis induced by UV (annexin V staining) (corneal endothelium) | Apoptosis induced by UV (annexin V staining) [2]

CCc1nc(-c2cccc(C)c2)c(-c2ccnc(NC(=O)c3ccccc3)c2)s1 [TAK-715, 2-benzamide-4-[2-ethyl-4-(3-methylphenyl)thiazole-5-yl]pyridine]
suppressed: Cellular disorders (cell death) induced by UV [1] | Apoptosis induced by UV (annexin V staining) (corneal endothelium) | Apoptosis induced by UV (annexin V staining) [2]

— US10813920B2, “Drug for treating corneal endothelium by promoting cell proliferation or inhibiting cell damage” (THE DOSHISHA, priority 2013, dated 2020)
